According to patent publication US9622498B2 (Vera Roasting Company, Inc., priority 2015, dated 2017):

Assays:
[1] = Solubility of resveratrol in glycerin tested using UV/vis spectroscopy; assay type: physicochemical
Description: This low solubility inhibits adequate, reproducible absorption from the gastrointestinal tract. For this reason, poor solubility is closely associated with low bioavailability. […] Glycerin engages in H-bonding interactions at both ends of the molecule, forming a 2:1 H-bonding complex.

[2] = cited from earlier work

Oc1ccc(C=Cc2cc(O)cc(O)c2)cc1 [resveratrol, 3,5,4′-trihydroxystilbene]
times more soluble in glycerin than in water ([1]; glycerin versus water): at least 48 times
solubility of resveratrol in glycerin ([1]; glycerin, UV/vis spectroscopy): ≥ 144 mg/100 mL
solubility of resveratrol in water [2]: approximately 3 mg/100 mL
